Experimental data from ChEMBL document CHEMBL4837240 (J Med Chem, 2021).
Activity calls are given as the source filed them. The rule behind the calls is not given here.

Tests used:
MDA-MB-231 [1] = assay: Induction of apoptosis in human MDA-MB-231 cells assessed as downregulation of Bcl2 expression up to 10 uM incubated for 24 hrs by Western blotting analysis; assay type: functional, cell-based; settings: dose microM <=10, time 24.0 hrs
MDA-MB-231 [2] = assay: Anticancer activity against human MDA-MB-231 cells assessed as cell viability incubated for 48 hrs by MTT assay; settings: MDA-MB-231, 48 h
[3] = target: T1, Vascular endothelial growth factor receptor 3 (Homo sapiens, UniProt P35916); assay: Inhibition of human FLT4/VEGFR3 assessed as residual kinase activity at 1 uM relative to control
T1 sequence (P35916 whole entry): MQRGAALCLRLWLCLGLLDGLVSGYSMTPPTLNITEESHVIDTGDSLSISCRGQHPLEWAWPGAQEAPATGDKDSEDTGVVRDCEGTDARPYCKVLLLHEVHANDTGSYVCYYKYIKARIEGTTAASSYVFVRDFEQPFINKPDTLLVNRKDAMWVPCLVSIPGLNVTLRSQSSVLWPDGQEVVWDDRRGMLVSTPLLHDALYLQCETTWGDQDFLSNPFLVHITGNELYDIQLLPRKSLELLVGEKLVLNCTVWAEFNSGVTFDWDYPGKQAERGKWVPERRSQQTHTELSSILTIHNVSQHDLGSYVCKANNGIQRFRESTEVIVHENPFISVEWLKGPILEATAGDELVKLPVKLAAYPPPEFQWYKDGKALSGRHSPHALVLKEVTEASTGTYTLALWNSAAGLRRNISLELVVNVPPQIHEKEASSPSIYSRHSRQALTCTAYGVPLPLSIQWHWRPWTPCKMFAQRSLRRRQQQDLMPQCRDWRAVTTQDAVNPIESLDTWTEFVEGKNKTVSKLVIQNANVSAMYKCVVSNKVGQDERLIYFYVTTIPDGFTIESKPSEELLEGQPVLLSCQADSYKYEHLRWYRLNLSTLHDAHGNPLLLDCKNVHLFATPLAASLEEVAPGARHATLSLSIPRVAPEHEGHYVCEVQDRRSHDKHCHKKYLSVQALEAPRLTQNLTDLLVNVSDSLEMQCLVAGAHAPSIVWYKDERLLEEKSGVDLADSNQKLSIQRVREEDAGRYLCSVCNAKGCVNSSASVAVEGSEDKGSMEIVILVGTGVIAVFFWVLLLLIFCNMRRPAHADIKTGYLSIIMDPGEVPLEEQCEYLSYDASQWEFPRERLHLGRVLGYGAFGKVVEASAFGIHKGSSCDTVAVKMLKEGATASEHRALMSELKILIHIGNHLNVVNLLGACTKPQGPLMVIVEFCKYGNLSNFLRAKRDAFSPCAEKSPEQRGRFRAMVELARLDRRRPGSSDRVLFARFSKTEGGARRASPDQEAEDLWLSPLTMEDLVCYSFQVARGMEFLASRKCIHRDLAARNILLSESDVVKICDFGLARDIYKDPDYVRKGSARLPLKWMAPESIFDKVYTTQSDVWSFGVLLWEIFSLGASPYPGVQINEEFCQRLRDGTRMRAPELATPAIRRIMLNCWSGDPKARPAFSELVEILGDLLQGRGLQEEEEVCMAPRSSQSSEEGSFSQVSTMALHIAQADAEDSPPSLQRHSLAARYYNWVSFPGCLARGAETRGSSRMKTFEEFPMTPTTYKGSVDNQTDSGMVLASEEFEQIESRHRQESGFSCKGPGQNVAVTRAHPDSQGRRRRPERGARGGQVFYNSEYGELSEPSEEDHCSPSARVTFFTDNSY

Misshapen-like kinase 1 = Misshapen-like kinase 1 (Homo sapiens, UniProt Q8N4C8); assay: Inhibition of human MINK assessed as residual kinase activity at 1 uM relative to control
[4] = target: T2, Vascular endothelial growth factor receptor 2 (Homo sapiens, UniProt P35968); assay: Inhibition of human KDR/VEGFR2 assessed as residual kinase activity at 1 uM relative to control
T2 sequence (P35968 whole entry): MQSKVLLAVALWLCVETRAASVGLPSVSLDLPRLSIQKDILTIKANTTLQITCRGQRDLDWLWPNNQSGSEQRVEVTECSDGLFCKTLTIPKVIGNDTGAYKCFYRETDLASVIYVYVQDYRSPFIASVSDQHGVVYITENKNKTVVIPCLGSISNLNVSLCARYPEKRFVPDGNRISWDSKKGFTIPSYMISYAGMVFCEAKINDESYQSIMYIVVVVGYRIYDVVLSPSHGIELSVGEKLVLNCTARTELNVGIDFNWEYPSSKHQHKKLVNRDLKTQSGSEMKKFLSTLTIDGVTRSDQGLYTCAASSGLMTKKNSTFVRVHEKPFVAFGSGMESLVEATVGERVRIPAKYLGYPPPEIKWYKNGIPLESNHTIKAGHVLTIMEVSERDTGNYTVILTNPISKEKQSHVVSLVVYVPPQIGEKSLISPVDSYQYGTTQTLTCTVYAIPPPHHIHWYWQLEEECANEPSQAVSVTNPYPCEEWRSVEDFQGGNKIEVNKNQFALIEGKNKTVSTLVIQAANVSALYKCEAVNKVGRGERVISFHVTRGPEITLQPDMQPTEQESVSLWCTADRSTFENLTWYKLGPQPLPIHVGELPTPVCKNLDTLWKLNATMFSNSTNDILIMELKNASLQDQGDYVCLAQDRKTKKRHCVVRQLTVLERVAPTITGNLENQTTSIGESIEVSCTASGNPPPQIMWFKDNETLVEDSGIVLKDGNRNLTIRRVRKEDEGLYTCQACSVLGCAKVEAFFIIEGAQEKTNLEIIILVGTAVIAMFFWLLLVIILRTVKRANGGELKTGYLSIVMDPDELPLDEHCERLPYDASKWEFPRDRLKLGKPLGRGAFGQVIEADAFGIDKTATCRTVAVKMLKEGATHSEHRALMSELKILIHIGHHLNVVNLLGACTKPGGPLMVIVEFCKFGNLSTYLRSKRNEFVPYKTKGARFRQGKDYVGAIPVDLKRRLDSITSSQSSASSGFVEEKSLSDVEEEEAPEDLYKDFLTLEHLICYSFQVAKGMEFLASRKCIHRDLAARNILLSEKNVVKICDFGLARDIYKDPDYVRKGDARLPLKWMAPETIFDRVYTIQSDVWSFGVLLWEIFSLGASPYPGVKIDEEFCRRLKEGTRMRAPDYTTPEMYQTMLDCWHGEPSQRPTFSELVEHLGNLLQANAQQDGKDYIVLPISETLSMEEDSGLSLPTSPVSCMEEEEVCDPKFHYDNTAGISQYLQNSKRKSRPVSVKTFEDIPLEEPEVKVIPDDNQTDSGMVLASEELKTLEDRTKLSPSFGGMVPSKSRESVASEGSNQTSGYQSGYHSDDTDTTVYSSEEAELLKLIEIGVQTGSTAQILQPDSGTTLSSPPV

[5] = target: Tyrosine-protein kinase BTK (Homo sapiens, UniProt Q06187); assay: Inhibition of human BTK
Sequence of Tyrosine-protein kinase BTK (Q06187 whole entry): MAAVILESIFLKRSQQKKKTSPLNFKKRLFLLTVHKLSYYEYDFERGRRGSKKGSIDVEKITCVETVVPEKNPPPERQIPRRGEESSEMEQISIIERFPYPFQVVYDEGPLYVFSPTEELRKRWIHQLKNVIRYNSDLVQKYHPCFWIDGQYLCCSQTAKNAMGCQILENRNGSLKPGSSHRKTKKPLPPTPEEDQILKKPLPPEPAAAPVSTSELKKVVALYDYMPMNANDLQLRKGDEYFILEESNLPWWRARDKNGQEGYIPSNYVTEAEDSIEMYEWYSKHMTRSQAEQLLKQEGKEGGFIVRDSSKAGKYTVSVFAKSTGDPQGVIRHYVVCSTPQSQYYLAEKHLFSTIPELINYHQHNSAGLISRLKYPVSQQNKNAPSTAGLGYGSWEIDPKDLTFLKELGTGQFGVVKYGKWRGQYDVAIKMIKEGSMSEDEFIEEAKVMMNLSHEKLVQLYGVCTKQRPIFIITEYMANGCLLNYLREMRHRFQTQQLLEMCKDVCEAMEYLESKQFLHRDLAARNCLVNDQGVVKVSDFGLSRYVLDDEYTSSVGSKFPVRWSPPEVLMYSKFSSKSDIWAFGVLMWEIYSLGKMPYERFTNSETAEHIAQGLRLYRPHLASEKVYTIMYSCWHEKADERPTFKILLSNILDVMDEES

[6] = target: T2, Vascular endothelial growth factor receptor 2; assay: Inhibition of human KDR/VEGFR2
[7] = target: Vascular endothelial growth factor receptor 1 (Homo sapiens, UniProt P17948); assay: Inhibition of human FLT1/VEGFR1
HDLEC = assay: Antimigratory activity against VEGF-C-induced human dermal lymphatic endothelial cells assessed as cell migration at 100 nM incubated for 12 hrs by inverted microscopy based by transwell assay; assay type: functional, tissue-based
[8] = target: T1, Vascular endothelial growth factor receptor 3; assay: Inhibition of VEGFR3 phosphorylation in human dermal lymphatic endothelial cells incubated for 24 hrs by Western blot analysis; assay type: tissue-based; settings: HDLEC
[9] = target: T1, Vascular endothelial growth factor receptor 3; assay: Inhibition of VEGFR3 in human dermal lymphatic endothelial cells assessed as inhibition of STAT5 phosphorylation incubated for 24 hrs by Western blot analysis; settings: HDLEC
MDA-MB-231 [10] = assay: Inhibition of colony formation in human MDA-MB-231 cells at 2.5 uM incubated for 24 hrs by clonogenic assay; assay type: functional
MDA-MB-231 [11] = assay: Induction of apoptosis in human MDA-MB-231 cells assessed as accumulation at G1 phase incubated for 48 hrs by flow cytometry; assay type: functional, cell-based
MDA-MB-436 [12] = assay: Induction of apoptosis in human MDA-MB-436 cells assessed as accumulation at G1 phase incubated for 48 hrs by flow cytometry; assay type: functional, cell-based
MDA-MB-231 [13] = assay: Induction of apoptosis in human MDA-MB-231 cells assessed as apoptotic cells at 2.5 to 5 uM incubated for 48 hrs by flow cytometry (reference value: 7.2%); assay type: functional; settings: dose 2.5-5 µM
MDA-MB-436 [14] = assay: Induction of apoptosis in human MDA-MB-436 cells assessed as apoptotic cells at 5 uM incubated for 48 hrs by flow cytometry; assay type: functional
MDA-MB-231 [15] = assay: Induction of apoptosis in human MDA-MB-231 cells assessed as cleaved caspase 3 up to 10 uM incubated for 24 hrs by Western blotting analysis; assay type: functional, cell-based; settings: dose microM <=10, time 24.0 hrs
MDA-MB-231 [16] = assay: Antimigratory activity against human MDA-MB-231 cells assessed as reduction in cell migration incubated for 12 hrs by transwell assay; assay type: functional, cell-based
MDA-MB-436 [17] = assay: Antimigratory activity against human MDA-MB-436 cells assessed as reduction in cell migration incubated for 12 hrs by transwell assay; assay type: functional, cell-based
MDA-MB-436 [18] = assay: Downregulation of MMP2 protein expression in human MDA-MB-436 cells up to 10 uM incubated for 24 hrs by Western blot analysis; assay type: functional, cell-based; settings: dose microM <=10, time 24.0 hrs
[19] = target: T1, Vascular endothelial growth factor receptor 3; assay: Inhibition of VEGFR3 phosphorylation in human MDA-MB-231 cells at 2.5 uM incubated for 24 hrs by Western blot analysis; assay type: cell-based
[20] = target: T1, Vascular endothelial growth factor receptor 3; assay: Inhibition of VEGFR3 in human MDA-MB-436 cells assessed as inhibition of STAT5 phosphorylation at 2.5 uM incubated for 24 hrs by Western blot analysis; assay type: cell-based
[21] = Half life in Sprague-Dawley rat at 10 mg/kg, po by LC-MS analysis; assay type: ADME, organism-based; settings: in vivo
[22] = Cmax in Sprague-Dawley rat at 1 mg/kg, iv by LC-MS analysis; assay type: ADME, organism-based; parameters: route intravenous, dose 1 mg/kg; settings: in vivo
[23] = AUC (0 to t) in Sprague-Dawley rat at 1 mg/kg, iv by LC-MS analysis; assay type: ADME, organism-based; parameters: dose 1 mg/kg; settings: in vivo
[24] = AUC (0 to infinity) in Sprague-Dawley rat at 1 mg/kg, iv by LC-MS analysis; assay type: ADME, organism-based; parameters: time infinity, route intravenous, dose 1 mg/kg; settings: in vivo
Danio rerio = species on record: Danio rerio; assay: Antiangiogenesis activity against transgenic zebrafish with GFP-labeled vascular endothelial cells assessed as inhibition of subintestinal vessels at 10 uM incubated for 24 hrs by fluorescence microscopy; assay type: functional, organism-based
[25] = Antitumor activity against human MDA-MB-231 cells xenografted in BALB/c mouse assessed as tumor growth inhibition at 50 mg/kg, po relative to control; assay type: functional; settings: read-out: TGI
[26] = Toxicity in po dosed BALB/c mouse xenografted with MDA-MB-231 cells assessed as maximum tolerated dose; assay type: organism-based; settings: in vivo
Mus musculus = assay: Decrease in Ki-67 level in BALB/c mouse xenografted with MDA-MB-231 cells in tumor tissue at 25 mg/kg, po by immunohistochemistry analysis; assay type: functional, organism-based
[27] = target: Vascular endothelial growth factor receptor 3 (Mus musculus) (UniProt P35917); assay: In vivo inhibition of VEGFR3 phosphorylation in BALB/c mouse xenografted with MDA-MB-231 cells at 25 mg/kg, po by immunohistochemistry analysis; assay type: functional, organism-based
Sequence of Vascular endothelial growth factor receptor 3 (Mus musculus) (P35917 whole entry): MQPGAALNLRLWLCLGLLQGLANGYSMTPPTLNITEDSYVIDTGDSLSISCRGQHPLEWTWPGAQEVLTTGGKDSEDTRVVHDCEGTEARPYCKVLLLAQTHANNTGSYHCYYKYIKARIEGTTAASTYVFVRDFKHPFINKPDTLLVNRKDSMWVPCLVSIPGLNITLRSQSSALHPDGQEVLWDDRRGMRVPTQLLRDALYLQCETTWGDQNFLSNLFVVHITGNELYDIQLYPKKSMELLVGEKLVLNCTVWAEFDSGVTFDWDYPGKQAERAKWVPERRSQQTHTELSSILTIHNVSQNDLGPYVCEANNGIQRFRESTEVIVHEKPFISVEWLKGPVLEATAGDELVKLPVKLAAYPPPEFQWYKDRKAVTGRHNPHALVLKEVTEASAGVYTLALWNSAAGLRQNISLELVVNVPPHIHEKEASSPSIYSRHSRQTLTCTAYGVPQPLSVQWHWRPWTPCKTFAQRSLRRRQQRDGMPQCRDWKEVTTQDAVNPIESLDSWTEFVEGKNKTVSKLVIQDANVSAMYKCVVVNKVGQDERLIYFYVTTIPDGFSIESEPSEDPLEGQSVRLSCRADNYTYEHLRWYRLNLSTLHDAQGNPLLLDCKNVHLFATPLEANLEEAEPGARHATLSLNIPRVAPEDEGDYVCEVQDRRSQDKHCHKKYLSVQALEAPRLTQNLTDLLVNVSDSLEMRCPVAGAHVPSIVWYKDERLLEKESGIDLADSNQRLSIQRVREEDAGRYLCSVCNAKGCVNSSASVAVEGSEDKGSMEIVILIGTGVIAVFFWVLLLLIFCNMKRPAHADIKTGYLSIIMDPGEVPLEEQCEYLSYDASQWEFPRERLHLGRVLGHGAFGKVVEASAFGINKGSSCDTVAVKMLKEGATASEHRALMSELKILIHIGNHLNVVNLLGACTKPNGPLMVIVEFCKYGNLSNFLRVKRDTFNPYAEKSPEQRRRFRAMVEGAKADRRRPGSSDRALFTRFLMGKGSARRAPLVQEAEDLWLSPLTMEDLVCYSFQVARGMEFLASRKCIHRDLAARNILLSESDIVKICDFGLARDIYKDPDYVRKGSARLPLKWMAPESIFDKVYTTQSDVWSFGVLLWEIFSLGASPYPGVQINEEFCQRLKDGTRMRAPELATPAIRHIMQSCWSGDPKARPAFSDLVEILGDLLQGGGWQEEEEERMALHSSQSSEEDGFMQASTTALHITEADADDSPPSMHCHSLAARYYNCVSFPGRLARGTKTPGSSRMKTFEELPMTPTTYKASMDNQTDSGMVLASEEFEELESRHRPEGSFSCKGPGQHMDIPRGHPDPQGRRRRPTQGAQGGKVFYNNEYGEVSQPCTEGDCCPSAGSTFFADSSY

[28] = target: Vascular endothelial growth factor receptor 3 (Mus musculus) (UniProt P35917); assay: In vivo inhibition of VEGFR3 phosphorylation in BALB/c mouse xenografted with MDA-MB-231 cells assessed as decrease in AKT phosphorylation at 25 mg/kg, po by immunohistochemistry analysis; assay type: functional, organism-based
[29] = target: Vascular endothelial growth factor receptor 3 (Mus musculus) (UniProt P35917); assay: In vivo inhibition of VEGFR3 phosphorylation in BALB/c mouse xenografted with MDA-MB-231 cells assessed as decrease in ERK1/2 phosphorylation at 25 mg/kg, po by immunohistochemistry analysis; assay type: functional, organism-based
MDA-MB-231 [30] = assay: Antimetastatic activity against human MDA-MB-231 cells injected into vein of BALB/c mouse lung metastatic model assessed as less lung metastatic nodules at 50 mg/kg, po once a day measured on day 21; assay type: functional, organism-based; settings: time 21.0 day

SMILES: CN1CCN(c2ccc(-c3cc4c(N5CCN(C(=O)Nc6ccc(Cl)c(C(F)(F)F)c6)CC5)ncnc4s3)cc2)CC1
- Activity (MDA-MB-231 [1]): Active
- IC50 (MDA-MB-231 [2]): 2220 nM
- Activity [3]: 0%
- Activity (Misshapen-like kinase 1): 5%
- Activity [4]: 85%
- IC50 [5]: 718 nM
- IC50 [6]: > 10 µM
- IC50 [7]: > 10 µM
- Activity (HDLEC): Active
- inhibition [8]: Dose-Dependent Effect
- inhibition [9]: Dose-Dependent Effect
- inhibition at 2.5 µM (MDA-MB-231 [10]): 100%
- Activity (MDA-MB-231 [11]): Dose-Dependent Effect
- Activity (MDA-MB-436 [12]): Dose-Dependent Effect
- Activity (MDA-MB-231 [13]): 19.7%
- Activity (MDA-MB-436 [14]): 36.7%
- Activity (MDA-MB-231 [15]): Active
- Activity (MDA-MB-231 [16]): Active
- Activity (MDA-MB-436 [17]): Active
- Activity (MDA-MB-436 [18]): Active
- inhibition [19]: Active
- inhibition [20]: Active
- half-life [21]: 960 min
- Cmax [22]: 420 ng/mL
- AUC(0-t) [23]: 2570 ng·h/mL
- AUC(0-inf) [24]: 3480 ng·h/mL
- inhibition (Danio rerio): Active
- inhibition in vivo at 50 mg/kg [25]: 61.9%
- MTD [26]: 300 mg/kg
- Activity (Mus musculus): Active
- Activity [27]: Active
- Activity [28]: Active
- Activity [29]: Active
- Activity (MDA-MB-231 [30]): Active
